Data as given in patent US9776972B2, “Pyrazole derivatives as arginine methyltransferase inhibitors and uses thereof” (priority 2013, dated 2017).

Target: human PRMT3 (Homo sapiens, UniProt O60678)
Experiment: PRMT3 Biochemical Assay (3H-SAM Flashplate, peptide substrate)
Conditions: single experiment or average of multiple experiments
Text: S-adenosylmethionine (SAM), S-adenosylhomocysteine (SAH), bicine, Tween20, dimethylsulfoxide (DMSO), bovine skin gelatin (BSG), isopropyl-β-D-thiogalactopyranoside (IPTG), and Tris(2-carboxyethyl)phosphine hydrochloride solution (TCEP) were purchased from Sigma-Aldrich at the highest level of purity possible. ^3H-SAM was purchase from American Radiolabeled Chemicals with a specific activity of 80 Ci/mmol. 384-well streptavidin Flashplates were purchased from PerkinElmer.
Peptide containing the classic RMT substrate motif was synthesized with an N-terminal linker-affinity tag motif and a C-terminal amide cap by 21st Century Biochemicals. The peptide was purified by high-performance liquid chromatography (HPLC) to greater than 95% purity and confirmed by liquid chromatography mass spectrometry (LC-MS). The sequence was Biot-Ahx-[…]-amide (SEQ ID NO.:11).
Full-length human PRMT3 (NM_005788.3) isoform 1 transcript clone was amplified from an HEK 293 cDNA library and subcloned into pGEX-KG (GE Life Sciences). The resulting construct encodes an N-terminal GST tag and a thrombin cleavage sequence ([…] […] […] […]) (SEQ ID NO.: 12) fused directly to Cys 2 of PRMT3.
E. coli (BL21(DE3) Gold, Stratagene) made competent by the CaCl2 method were transformed with the PRMT3 construct and ampicillin selection. Protein over-expression was accomplished by growing the PRMT3 expressing E. coli clone and inducing expression with 0.3 mM IPTG at 16° C. The culture was grown for 12 hours, harvested by centrifugation, and stored at −80° C. for purification.
GST-tagged PRMT3 was eluted with 50 mM Tris, 2 mM glutathione, pH 7.1 and 50 mM Tris, 20 mM glutathione, pH 7.1. Pooled fractions were dialysed in 20 mM Tris, 50 mM NaCl, 5% glycerol, 1 mM EDTA, 1 mM DTT, pH7.5 (Buffer B) and applied to a Q Sepharose Fast Flow column. GST-tagged PRMT3 was eluted by 500 mM NaCl in buffer B. Pooled fractions were dialyzed in 25 mM phosphate buffer, 100 mM NaCl, 5% glycerol, 2 mM DTT, pH 6.8 (Buffer C) and loaded on to a ceramic hydroxyapatite column. GST-tagged PRMT3 eluted with 25-400 mM phosphate in buffer C. Protein was concentrated and buffer was exchanged to 20 mM Tris, 150 mM NaCl, 5% glycerol, 5 mM β-mercaptoethanol, pH7.8 by ultrafiltration. The purity of recovered protein was 70%.
General Procedure for PRMT3 Enzyme Assays on Peptide Substrates.
The assays were all performed in a buffer consisting of 20 mM Bicine (pH=7.6), 1 mM TCEP, 0.005% BSG, and 0.002% Tween 20, prepared on the day of use. Compounds in 100% DMSO (1 ul) were spotted into a polypropylene 384-well V-bottom plates (Greiner) using a Platemate Plus outfitted with a 384-channel head (Thermo Scientific). DMSO (1 ul) was added to Columns 11, 12, 23, 24, rows A-H for the maximum signal control and 1 ul of SAH, a known product and inhibitor of PRMT3, was added to columns 11, 12, 23, 24, rows I-P for the minimum signal control. A cocktail (40 ul) containing the PRMT3 enzyme was added by Multidrop Combi (Thermo-Fisher). The compounds were allowed to incubate with PRMT3 for 30 min at room temperature, then a cocktail (10 ul) containing SAM and peptide was added to initiate the reaction (final volume=51 ul). The final concentrations of the components were as follows: PRMT3 was 0.5 nM, ^3H-SAM was 100 nM, non-radiolabeled SAM was 1.8 uM, peptide was 330 nM, SAH in the minimum signal control wells was 1 mM, and the DMSO concentration was 2%. The assays were stopped by the addition of potassium chloride (10 ul) to a final concentration of 100 mM. 50 ul of the reaction in the 384-well polypropylene plate was then transferred to a 384-well Flashplate and the biotinylated peptides were allowed to bind to the streptavidin surface for at least 1 hour before being washed once with 0.1% Tween20 in a Biotek ELx405 plate washer. […]

Sequence of human PRMT3 (O60678 with tags, fused parts or gaps): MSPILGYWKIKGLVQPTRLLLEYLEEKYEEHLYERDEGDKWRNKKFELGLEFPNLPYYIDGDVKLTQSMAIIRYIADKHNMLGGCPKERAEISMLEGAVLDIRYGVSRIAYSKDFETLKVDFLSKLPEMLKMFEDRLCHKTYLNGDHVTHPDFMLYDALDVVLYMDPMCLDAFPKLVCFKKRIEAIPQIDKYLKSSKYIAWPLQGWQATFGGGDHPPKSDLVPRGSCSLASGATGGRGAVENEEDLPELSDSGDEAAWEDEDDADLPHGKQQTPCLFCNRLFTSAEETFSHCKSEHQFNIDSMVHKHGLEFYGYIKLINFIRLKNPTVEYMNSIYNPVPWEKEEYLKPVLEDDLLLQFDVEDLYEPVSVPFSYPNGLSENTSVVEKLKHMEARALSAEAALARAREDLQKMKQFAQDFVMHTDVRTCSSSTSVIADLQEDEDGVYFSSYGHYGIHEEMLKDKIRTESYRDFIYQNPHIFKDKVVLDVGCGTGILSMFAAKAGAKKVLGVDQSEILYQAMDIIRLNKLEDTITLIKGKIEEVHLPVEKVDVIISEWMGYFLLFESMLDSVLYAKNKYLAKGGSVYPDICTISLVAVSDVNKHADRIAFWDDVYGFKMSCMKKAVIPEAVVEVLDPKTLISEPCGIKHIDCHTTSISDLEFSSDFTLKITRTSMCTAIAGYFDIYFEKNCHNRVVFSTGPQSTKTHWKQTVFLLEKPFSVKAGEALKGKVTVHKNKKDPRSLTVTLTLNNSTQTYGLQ

Compound	IC50
COCCn1ncc(CN(C)CCN)c1-c1ccc(F)cc1 [Compound 6]	> 50 µM
CCn1ncc(CN(C)CCNC)c1-c1ccc(F)cc1 [Compound 7]	26 µM
CCn1cc(CN(C)CCNC)c(-c2ccc(F)cc2)n1 [Compound 8]	> 50 µM
CN(CCN)Cc1c[nH]nc1-c1ccc(OCC(F)(F)F)cc1 [Compound 96]	3.14 µM
CC(C)Oc1ccc(-c2n[nH]cc2CN(C)CCN)cc1F [Compound 97]	3.5 µM
CN(CCN)Cc1c[nH]nc1-c1ccc(C2CCOCC2)cc1 [Compound 98]	0.684 µM
CN(CCN)Cc1n[nH]cc1-c1ccc(C#N)cc1 [Compound 100]	7.26 µM
CN(CCN)Cc1n[nH]cc1-c1ccc(Cl)cc1 [Compound 102]	6.16 µM
CN(CCN)Cc1n[nH]cc1-c1ccc(OC(F)(F)F)cc1 [Compound 105]	9.83 µM
COc1ccc(-c2n[nH]cc2CN(C)CCN)c(F)c1 [Compound 107]	8 µM
Cc1ccc(-c2n[nH]cc2CN(C)CCN)c(F)c1 [Compound 108]	9.91 µM
Cc1cc(C#N)ccc1-c1n[nH]cc1CN(C)CCN [Compound 110]	7.21 µM
CN(CCN)Cc1c[nH]nc1-c1cc(F)cc(F)c1 [Compound 111]	5.39 µM
CC(=O)c1cccc(-c2n[nH]cc2CN(C)CCN)c1 [Compound 112]	3.68 µM
CN(CCN)Cc1c[nH]nc1-c1ccc(OC2CC2)cc1 [Compound 114]	3.2 µM
CC(O)c1ccc(-c2n[nH]cc2CN(C)CCN)cc1 (centres unmarked) [Compound 115]	8.32 µM
COc1ccc(-c2n[nH]cc2CN(C)CCN)cc1Cl [Compound 125]	4.32 µM
CN(CCN)Cc1c[nH]nc1-c1ccc(Cl)cc1F [Compound 132]	3.98 µM

Other lines, results leading:

IC50	Compound
2.78 µM	CN(CCN)Cc1c[nH]nc1-c1ccc(C2CC2)cc1 [Compound 116]
2.3 µM	CN(CCN)Cc1c[nH]nc1-c1ccc(C(F)(F)F)c(Cl)c1 [Compound 117]
1.04 µM	CN(CCN)Cc1c[nH]nc1-c1ccc(Cl)c(F)c1 [Compound 118]
9.6 µM	CN(CCN)Cc1n[nH]cc1-c1ccc(OC2CC2)cc1 [Compound 119]
2.88 µM	CN(CCN)Cc1c[nH]nc1-c1cc(F)cc(Cl)c1 [Compound 121]
5.01 µM	CN(CCN)Cc1c[nH]nc1-c1cccc(Cl)c1 [Compound 122]
3.92 µM	CN(CCN)Cc1c[nH]nc1-c1cccc(Cl)c1F [Compound 123]
2.22 µM	CN(CCN)Cc1c[nH]nc1-c1ccc(F)c(Cl)c1 [Compound 124]
2.55 µM	Cc1ccc(-c2n[nH]cc2CN(C)CCN)cc1Cl [Compound 126]
5.65 µM	COc1cc(Cl)cc(-c2n[nH]cc2CN(C)CCN)c1 [Compound 127]
9.91 µM	Cc1c(F)cccc1-c1n[nH]cc1CN(C)CCN [Compound 129]
6.46 µM	COc1cccc(-c2n[nH]cc2CN(C)CCN)c1 [Compound 130]
3.57 µM	Cc1cccc(-c2n[nH]cc2CN(C)CCN)c1 [Compound 131]
4.1 µM	Cc1cc(Cl)ccc1-c1n[nH]cc1CN(C)CCN [Compound 133]
5.44 µM	COc1ccc(-c2n[nH]cc2CN(C)CCN)cc1F [Compound 134]
7.58 µM	CN(CCN)Cc1c[nH]nc1-c1cc(Cl)cc(Cl)c1 [Compound 137]
5.21 µM	CN(CCN)Cc1c[nH]nc1-c1ccccc1C#N [Compound 140]
3.47 µM	CN(CCN)Cc1c[nH]nc1-c1ccc(C(F)(F)F)c(F)c1 [Compound 141]
4.83 µM	COc1cc(-c2n[nH]cc2CN(C)CCN)ccc1F [Compound 142]
8.37 µM	CCN(CC)C(=O)c1ccc(-c2n[nH]cc2CN(C)CCN)cc1 [Compound 143]
